Experimental data: article PMC12693135, “Ocular Toxicity and Mechanistic Investigation for Berberine and Its Metabolite Berberrubine on Zebrafish” (Molecules, 2025)

Experiments:
zebrafish larvae eye = assay: Zebrafish eye length and area experiment; format: in vivo, zebrafish (Danio rerio); details: zebrafish larvae at 5 dpf vs 0.05% DMSO control; BBR 20-200 µM, M1 20-625 µM
Procedure: Half of the epiboly embryos (6 hpf under standard conditions) were exposed to solutions (2 mL) of BBR at the concentrations of 20, 50, 100, and 200 µM or M1 at the concentrations of 20, 50, 100, 200, 400, and 625 µM and cultured under standard conditions, taking 0.05% DMSO in saline as the control. The experiment was performed three times using 30 embryos per concentration (n = 90 per group in total). At 5 dpf, embryos were washed 3× with normal medium, transferred to fresh medium, and photographed by E3ISPM20000KPA digital camera (ToupTek, Hangzhou, China), with the magnification of 10–40× and exposure time of 200–500 ms. Then the eye length and area were measured and analyzed using Image J V2.1.X (NIH, Bethesda, MD, USA). Data (eye length/area) were expressed as mean ± SD, compared with the control group, and plotted.

[1] = tested on: wild-type AB strain zebrafish; assay: Determination of ATP and ROS levels in zebrafish larvae; format: in vivo, zebrafish (Danio rerio); details: BBR 25 or 50 μM, M1 100 or 200 μM, 5 dpf; for ROS levels: relative to control
Procedure: Wild-type AB strain zebrafish (6 hpf) were treated with BBR (25 or 50 μM), M1 (100 or 200 μM), or 0.05% DMSO (control) until 5 dpf, with 30 larvae per treatment and three biological replicates (total 90 larvae per group). Subsequently, 3 larvae were pooled per sample (10 samples per group) and the entire zebrafish was transferred directly into a 96-well plate for fluorescence detection. Cellular ATP content was determined using the CellTiter-Glo® Luminescent Cell Viability Assay Kit (Promega, Madison, WI, USA), which relies on a bioluminescent principle (luciferase-luciferin reaction). Cellular ROS levels were measured using CM-H2DCFDA kits (Invitrogen, Carlsbad, CA, USA), based on the oxidation of non-fluorescent CM-H2DCFDA to fluorescent DCF by ROS. Reagents were prepared and reactions were performed according to the manufacturers’ instructions, with luminescence detected using a Spark multifunctional microplate reader (Tecan, Grödig, Austria).

[2] = tested on: wild-type AB strain zebrafish ocular cells; assay: Fluorescence microscopy for ocular cell apoptosis (acridine orange); format: in vivo, zebrafish (Danio rerio); details: for fluorescence intensity of apoptotic ocular cells (ratio to eye area): control 0.19
Procedure: To investigate the underlying mechanism of ocular toxicity, we evaluated the proapoptotic effects of BBR and M1 on wild-type AB strain zebrafish ocular cells. Zebrafish embryos at 6 hpf were water-soluble administration with BBR (25 or 50 μM) or M1 (100 or 200 μM), and the fluorescence intensity of apoptotic ocular cells was measured at 5 dpf using confocal fluorescence microscopy (Figure 4A). […] Specifically, the fluorescence intensity (a marker of apoptotic cell abundance) was increased from 0.19 to 0.28 and 0.32 upon the treatments of 25 μM BBR and 50 μM BBR, respectively.
A total of 30 wild-type AB strain zebrafish at 6 hpf were treated with BBR at 25 or 50 μM, M1 at 100 or 200 μM, or 0.05% DMSO (control), respectively, […], with 30 larvae per treatment and three biological replicates (total 90 larvae per group). The zebrafish larvae were then stained with acridine orange. After staining, 10 larvae were randomly selected from each experimental group and imaged using a motorized-focus continuous-zoom fluorescence microscope AZ100 (Nikon, Shinagawa-ku, Japan) with the magnification of 10–40× and exposure time of 200–500 ms. The fluorescence intensity of ocular apoptotic cells and mitochondria in zebrafish larvae was measured and analyzed using NIS-Elements 6.10 (Nikon Imaging Software, Nikon, Japan).

[3] = tested on: mitochondrial complex I (NADH dehydrogenase); assay: Mitochondrial complex I activity assay in treated zebrafish larvae; format: in vivo, zebrafish (Danio rerio); details: BBR 25 or 50 μM, M1 100 or 200 μM, 5 dpf
Procedure: Wild-type AB strain zebrafish (6 hpf) were treated with BBR (25 or 50 μM), M1 (100 or 200 μM), or 0.05% DMSO (control) until 5 dpf, with 9 larvae per treatment and three biological replicates ([…]). Three zebrafish larvae were harvested per group (3 samples per group) and homogenized on ice following the protocol of the Mitochondrial Respiratory Chain Complex I Activity Assay Kit (Solabor, Beijing, China). Briefly, cell homogenates were centrifuged at 600× g for 5 min at 4 °C, and the supernatants were transferred to new microcentrifuge tubes. The samples were then centrifuged again at 11,000× g for 10 min at 4 °C; the precipitates (containing mitochondria) were used for the complex I activity assay. These precipitates were subjected to ultrasonication in the appropriate reaction buffer, and reactions were set up according to the protocol. After mixing, the OD340 values at time 0 (OD1) and at 2 min (OD2) were recorded using a Synergy H1 multifunctional microplate reader (Biotek, Winooski, VT, USA). The ΔOD value was calculated by subtracting OD2 from OD1. Mitochondrial complex I activity was calculated according to the formula provided in the protocol and expressed as units per mg of sample protein.

[4] = MTT cytotoxicity assay on HCE-T cells; format: cell-based, human; details: human, HCE-T human corneal epithelial cells; HCE-T cells, 24 h incubation
Procedure: The human corneal epithelial cell line HCE-T (Cellosaurus accession: CVCL_1272, RRID: CVCL_1272, RCB: RCB2280) was purchased from Procell Life Science and Technology Co., Ltd. (Wuhan, China). […] were cultured in high-glucose Dulbecco’s Modified Eagle Medium (DMEM), which was purchased from Procell Life Science and Technology Co., Ltd. (Wuhan, China). The high-glucose DMEM was DMEM basic medium supplemented with 15% fetal bovine serum (Procell), 1% penicillin/streptomycin (Procell), 5 μg/mL insulin, and 10 ng/mL human epidermal growth factor (Procell).
HCE-T cells were seeded in 96-well plates (8 × 10^3 cells/well, 100 μL medium) and cultured overnight at 37 °C, 5% CO2 for adhesion. BBR or its metabolites at various concentrations (BBR and M3 at the concentrations of 31.25, 62.5, 125, 250 and 500 µM, M1 and M4 at the concentrations of 25, 50, 100, 200 and 400 µM) in 0.5% DMSO were added and incubated for 24 h, with 0.5% DMSO in culture medium as the vehicle control. Subsequently, 20 μL MTT (5 mg/mL) was added to each well and the cells were cultured at 37 °C for 4 h. Then, the culture medium was removed, and 150 μL DMSO was added to dissolve formazan crystals and the absorbance at 570 nm was measured on a Synergy H1 multifunctional microplate reader (Biotek, Winooski, VT, USA). The IC50 values of test compounds were calculated by Graphpad Prism 8.5 (GraphPad Software Co., San Diego, CA, USA).

| SMILES | eye length and eye area (zebrafish larvae eye) | intracellular ATP levels [1] | ROS levels [1] | fluorescence intensity of apoptotic ocular cells (ratio to eye area) ([2]; 25 μM) | fluorescence intensity of apoptotic ocular cells (ratio to eye area) ([2]; 50 μM) | mitochondrial complex I activity [3] | IC50 at 24 h [4] [µM] | apoptosis in ocular cells ([2]; 200 μM compared with 100 μM) |
| --- | --- | --- | --- | --- | --- | --- | --- | --- |
| COc1ccc2cc3[n+](cc2c1OC)CCc1cc2c(cc1-3)OCO2 [BBR, berberine] | significantly and dose-dependently reduced | significantly reduced | marked and dose-dependent increase | 0.28 | 0.32 | dose-dependently suppressed | 301 | – |
| COc1ccc2cc3[n+](cc2c1O)CCc1cc2c(cc1-3)OCO2 [M1, berberrubine] | significantly and dose-dependently reduced | significantly reduced | marked and dose-dependent increase | – | – | marked, dose-dependent decrease | 232 | significant increase in apoptosis |
